Test results taken from patent US20010053778A1, “Pharmaceutical compositions of glycogen phosphorylase inhibitors” (priority 2000, published 2001).

Assays:
[1] = in vitro dissolution test, microcentrifuge method, PBS (Drug 1 compositions); format: physicochemical; details: for AUC90: area under aqueous concentration versus time curve after 90 minutes; for AUC90 / C1200 / Cmax, 90: PBS, dosage 2000 μg/mL; for C1200: concentration at 1200 minutes; for Cmax, 90: maximum concentration of Drug 1 in solution during first 90 minutes; for AUC / Drug Concentration: PBS pH 6.5, 37° C.
Procedure: In vitro dissolution tests were performed to evaluate the performance of the amorphous dispersions of Examples 1-9 relative to the performance of Controls 1 and 2. The dissolution performance of the SDD of Example 1 was evaluated in an in vitro dissolution test using a microcentrifuge method. In this test, 14.4 mg of the SDD of Example 1 was added to a microcentrifuge tube. The tube was placed in a 37° C. sonicating bath, and 1.8 mL phosphate buffered saline (PBS) at pH 6.5 and 290 mOsm/kg was added. The samples were quickly mixed using a vortex mixer for about 60 seconds. The samples were centrifuged at 13,000 G at 37° C. for 1 minute. The resulting supernatant solution was then sampled and diluted 1:6 (by volume) with methanol and then analyzed by high-performance liquid chromatography (HPLC). The contents of the tubes were mixed on the vortex mixer and allowed to stand undisturbed at 37° C. until the next sample was taken. Samples were collected at 4, 10, 20, 40, 90, and 1200 minutes.
The performance of Example Nos. 2-8 was likewise evaluated in in vitro dissolution tests using the same microcentrifuge method described above. The dosage for each of these tests was 2000 μg/ml.
The performance of the amorphous dispersions of Example 9 were tested using the same microcentrifuge method, except that 2.5 grams of the coated beads were added to 50 mL of PBS solution (resulting in a dosage of 2000 μg/mL).
For Controls 1 and 2, in vitro dissolution tests were also performed using the same microcentrifuge method except that 3.6 mg of either crystalline or amorphous Drug 1 was used.
These compositions were evaluated in in vitro dissolution tests using the procedures outlined in Example 10. The quantities of drug and polymer noted above were each added to a microcentrifuge tube, to which was added 1.8 ml of PBS solution. The tube was vortexed immediately after adding the PBS solution.
A coating solution comprising 7.5 wt % HPMCAS-MF dissolved in 92.5 wt % solvent (5 wt % water in acetone) was prepared and spray-coated onto Nu-Core Beads (45/60 mesh), producing a thin coating of the polymer on the surface of the beads resulting in beads containing 12.2 wt % HPMCAS-MF. Samples of these beads (2.4 gm) were then mixed with 100 mg of amorphous Drug 1 (resulting in a drug:polymer ratio of 1:3 or 25 wt % Drug 1) and evaluated in an in vitro dissolution test using the procedures outlined in Example 10.
A composition was formed by blending 50 wt % of the SDD of Example 2 (containing 50 wt % Drug 1 and 50 wt % HPMCAS-MF) with 50 wt % HPMCAS-MF. This composition was evaluated in a dissolution test as described in Example 10.

[2] = in vitro dissolution test, microcentrifuge method, model fasted duodenal solution (Drug 2 compositions); format: physicochemical; parameters: AUC: concentration or dose not given beside the values; details: for AUC90: aqueous area under the curve after 90 minutes; for AUC90 / C1200 / Cmax, 90 / AUC: MFDS; for AUC90 / C1200 / Cmax, 90: dosage 1000 μg/mL; for C1200: concentration at 1200 minutes; for Cmax, 90: maximum concentration of Drug 2 in solution during first 90 minutes; for Drug Concentration: MFDS pH 6.5, 37° C.
Procedure: In vitro dissolution tests were performed to evaluate the performance of the amorphous dispersions of Examples 12-17 relative to the performance of Controls 4 and 5. The SDD of Example 12 was evaluated in an in vitro dissolution test using a microcentrifuge method. In this test, 3600 μg of the SDD of Example 12 was added to a microcentrifuge tube. The tube was placed in a 37° C. sonicating bath, and 1.8 mL of model fasted duodenal solution (MFDS), comprising phosphate buffered saline with 14.7 mM sodium taurocholic acid and 2.8 mM of 1-palmitoyl-2-oleyl-sn-glycero-3-phosphocholine, pH 6.5, 290 mOsm/kg, was added. […] The samples were quickly mixed using a vortex mixer for about 60 seconds. The samples were centrifuged at 13,000 G at 37° C. for 1 minute. The resulting supernatant solution was then sampled and diluted 1:6 (by volume) with methanol and then analyzed by high-performance liquid chromatography (HPLC). The contents of the tubes were mixed on the vortex mixer and allowed to stand undisturbed at 37° C. until the next sample was taken. Samples were collected at 4, 10, 20, 40, 90, and 1200 minutes.
For Controls 4 and 5, in vitro dissolution tests were performed using the procedures described above except that 1.8 mg of crystalline and amorphous Drug 2 was used, respectively.

| Compound | AUC90 [1] | C1200 [1] [µg/mL] | Cmax, 90 [1] [µg/mL] | AUC ([1]; time 0 min) [µg·min/mL] | Drug Concentration ([1]; time 0 min) [µg/mL] | AUC ([1]; time 4 min) | Drug Concentration ([1]; time 4 min) [µg/mL] | AUC ([1]; time 10 min) | Drug Concentration ([1]; time 10 min) [µg/mL] | AUC ([1]; time 20 min) | Drug Concentration ([1]; time 20 min) [µg/mL] | AUC ([1]; time 40 min) | Drug Concentration ([1]; time 40 min) [µg/mL] | AUC ([1]; time 90 min) | Drug Concentration ([1]; time 90 min) [µg/mL] | AUC ([1]; time 1200 min) | Drug Concentration ([1]; time 1200 min) [µg/mL] | AUC90 [2] | C1200 [2] [µg/mL] | Cmax, 90 [2] [µg/mL] | also measured |
| --- | --- | --- | --- | --- | --- | --- | --- | --- | --- | --- | --- | --- | --- | --- | --- | --- | --- | --- | --- | --- | --- |
| O=C(N[C@@H](Cc1ccccc1)[C@@H](O)C(=O)N1C[C@@H](O)[C@@H](O)C1)c1cc2cc(Cl)ccc2[nH]1 [Control 1] | 12,800 min* μg/mL | 125 | 149 | 0 | 0 | 260 µg·min/mL | 130 | 1,100 min* μg/mL | 149 | 2,500 min* μg/mL | 139 | 5,400 min* μg/mL | 149 | 12,800 min* μg/mL | 147 | 163,800 min* μg/mL | 125 |  |  |  |  |
| O=C(N[C@@H](Cc1ccccc1)[C@@H](O)C(=O)N1C[C@@H](O)[C@@H](O)C1)c1cc2cc(Cl)ccc2[nH]1 [Control 2] | 20,600 min* μg/mL | 203 | 586 | 0 | 0 | 1,200 min* μg/mL | 586 | 4,400 min* μg/mL | 473 | 7,800 min* μg/mL | 220 | 11,700 min* μg/mL | 182 | 20,600 min* μg/mL | 167 | 225,900 min* μg/mL | 203 |  |  |  | AUC ([1]; time 180 min): 35,200 min* μg/mL; Drug Concentration ([1]; time 180 min): 158 µg/mL |
| O=C(N[C@@H](Cc1ccccc1)C(=O)N1CC(O)C1)c1cc2cc(Cl)ccc2[nH]1 [Control 4] |  |  |  |  |  |  |  |  |  |  |  |  |  |  |  |  |  | 5,900 min* μg/mL | 102 | 82 | AUC ([2]; time 0 min): 0 µg·min/mL; Drug Concentration ([2]; time 0 min): 0 µg/mL; AUC ([2]; time 4 min): 90 µg·min/mL; Drug Concentration ([2]; time 4 min): 45 µg/mL; AUC ([2]; time 10 min): 357 µg·min/mL; Drug Concentration ([2]; time 10 min): 44 µg/mL; AUC ([2]; time 20 min): 842 µg·min/mL; Drug Concentration ([2]; time 20 min): 53 µg/mL; AUC ([2]; time 40 min): 2,100 min* μg/mL; Drug Concentration ([2]; time 40 min): 72 µg/mL; AUC ([2]; time 90 min): 5,900 min* μg/mL; Drug Concentration ([2]; time 90 min): 82 µg/mL; AUC ([2]; time 1200 min): 108,100 min* μg/mL; Drug Concentration ([2]; time 1200 min): 102 µg/mL |
| O=C(N[C@@H](Cc1ccccc1)C(=O)N1CC(O)C1)c1cc2cc(Cl)ccc2[nH]1 [Control 5] |  |  |  |  |  |  |  |  |  |  |  |  |  |  |  |  |  | 20,800 min* μg/mL | 370 | 268 | AUC ([2]; time 0 min): 0 µg·min/mL; Drug Concentration ([2]; time 0 min): 0 µg/mL; AUC ([2]; time 4 min): 302 µg·min/mL; Drug Concentration ([2]; time 4 min): 151 µg/mL; AUC ([2]; time 10 min): 1,400 min* μg/mL; Drug Concentration ([2]; time 10 min): 203 µg/mL; AUC ([2]; time 20 min): 3,500 min* μg/mL; Drug Concentration ([2]; time 20 min): 225 µg/mL; AUC ([2]; time 40 min): 8,100 min* μg/mL; Drug Concentration ([2]; time 40 min): 238 µg/mL; AUC ([2]; time 90 min): 20,800 min* μg/mL; Drug Concentration ([2]; time 90 min): 268 µg/mL; AUC ([2]; time 1200 min): 374,900 min* μg/mL; Drug Concentration ([2]; time 1200 min): 370 µg/mL |
